What was measured:
Assay type in all cases: cell-based, human
CXF 243 = assay: Colony outgrowth assay, patient-derived colorectal cancer xenograft cells; design: key to Response to vinblastine: BAL27862-sensitive tumour cells were those that had IC70 values in the low nanomolar range; BAL27862-resistant tumour cells had IC70 values >600 nanomolar; conditions: CXF 243, ex vivo colony outgrowth
Protocol: (§1) Single cell suspensions of patient-derived tumour xenografts (maintained in nude mice) were prepared. For colony outgrowth assays, cells were plated in soft agar in 24-well plates according to the assay introduced by Hamburger & Salmon (Primary bioassay of human tumour stem cells, Science, 1977, 197:461-463). 2×10^4-6×10^4 cells in 0.2 mL medium containing 0.4% agar were plated out on a bottom layer of 0.75% agar. Test compounds were applied in 0.2 mL culture medium. Every 24-well plate contained untreated controls and samples in triplicates. Cultures were incubated at 37° C. and 7.5% CO2 for 5-28 days. 24 hours prior to analysis, vital colonies were stained with a solution of metabolizable tetrazolium salt (Alley M C et al, Life Sci. 1982, 31:3071-3078) and were counted with an automatic image analysis system (Omnicon 3600, Biosys GmbH).
(§2) Relative drug effects were expressed by the ratio of the mean number of colonies in the treated wells and the control wells. IC70-values were determined by plotting compound concentrations versus relative colony counts.
(§3) Based on colony outgrowth assays, using tumour cells derived from 8 patient-derived tumours maintained as xenografts in mice, BAL27862-sensitive or resistant tumour cells were identified from gastric cancer, colorectal cancer, melanoma, and lung cancer (see Table 1). In this table, BAL27862-sensitive tumour cells were those that had IC70 values in the low nanomolar range, while BAL27862-resistant tumour cells had IC70 values >600 nanomolar. Paclitaxel and vinblastine data, using the same ex vivo assay, was available for 7 of the 8 tumour models. Of these 7 models, all were resistant to treatment with paclitaxel, while 6 were sensitive to treatment with vinblastine.

MEXF 1341 = assay: Colony outgrowth assay, patient-derived melanoma xenograft cells; design: key to Response to BAL27862 / Response to vinblastine: BAL27862-sensitive tumour cells were those that had IC70 values in the low nanomolar range; BAL27862-resistant tumour cells had IC70 values >600 nanomolar; conditions: MEXF 1341, ex vivo colony outgrowth
Protocol: as §1, §2, §3

CXF 1103 = assay: Colony outgrowth assay, patient-derived colorectal cancer xenograft cells; design: key to Response to BAL27862: BAL27862-sensitive tumour cells were those that had IC70 values in the low nanomolar range; BAL27862-resistant tumour cells had IC70 values >600 nanomolar; conditions: CXF 1103, ex vivo colony outgrowth
Protocol: as §1, §2, §3

GFX 251 = assay: Colony outgrowth assay, patient-derived gastric tumour xenograft cells; design: key to Response to vinblastine / Response to BAL27862: BAL27862-sensitive tumour cells were those that had IC70 values in the low nanomolar range; BAL27862-resistant tumour cells had IC70 values >600 nanomolar; conditions: GFX 251, ex vivo colony outgrowth
Protocol: as §1, §2, §3

MEXF 276 = assay: Colony outgrowth assay, patient-derived melanoma xenograft cells; design: key to Response to vinblastine: BAL27862-sensitive tumour cells were those that had IC70 values in the low nanomolar range; BAL27862-resistant tumour cells had IC70 values >600 nanomolar; conditions: MEXF 276, ex vivo colony outgrowth
Protocol: as §1, §2, §3

A549 NSCLC cells = assay: Immunofluorescent staining of microtubules (anti-alpha-tubulin) in cultured cells; conditions: for Effect on microtubule phenotype induced by BAL27862: 24 hours BAL27862 with the final 4 hours including the agent; for Microtubule phenotype of mitotic or G2/M arrested cells: 24 hours treatment
Protocol: (§4) A549 human non-small cell lung cancer (NSCLC, ATCC reference number CCL-185) cells, HeLa cervical cancer cells (ATCC reference number CCL-2) and SKBR3 breast carcinoma cells (ATCC reference number HTB-30) were seeded at densities of 50% on round microscope coverslips and cultured for 24 hours in RPMI-1640 containing 10% FCS (also referred to as FBS) at 37° C., 5% CO2. Compounds to be tested were dissolved in DMSO. The cell culture medium was replaced with medium containing the diluted compound(s) (paclitaxel, vinblastine, colchicine and nocodazole were purchased from Sigma-Aldrich) or vehicle. After treatment for the times indicated in the Brief Description of the Figures, coverslips were washed and cells were fixed in methanol/acetone (1:1) for 5 minutes at room temperature and subsequently incubated in blocking buffer (0.5% BSA and 0.1% TX-100 in PBS) for 30 minutes at room temperature. Specimens were then incubated with anti-alpha-tubulin antibody (Sigma, 1:2000) for 1 hour at room temperature in blocking buffer. After several washing steps cells were incubated with AlexaFluor-488 goat-anti-mouse IgG (Molecular Probes, 1:3000) for 1 hour at room temperature followed by several washing steps with blocking buffer. Specimens were then mounted with ProLong Gold antifade (Molecular Probes), sealed with nail polish and examined with a Leica immunofluorescence microscope. Images were captured with a cooled CCD-camera and processed by ImageJ software.

GFX 97 = assay: Colony outgrowth assay, patient-derived gastric tumour xenograft cells; design: key to Response to vinblastine: BAL27862-sensitive tumour cells were those that had IC70 values in the low nanomolar range; BAL27862-resistant tumour cells had IC70 values >600 nanomolar; conditions: GFX 97, ex vivo colony outgrowth
Protocol: as §1, §2, §3

LXFE 211 = assay: Colony outgrowth assay, patient-derived lung tumour xenograft cells; design: key to Response to BAL27862 / Response to vinblastine: BAL27862-sensitive tumour cells were those that had IC70 values in the low nanomolar range; BAL27862-resistant tumour cells had IC70 values >600 nanomolar; conditions: LXFE 211, ex vivo colony outgrowth
Protocol: as §1, §2, §3

LXFE 397 = assay: as above; conditions: LXFE 397, ex vivo colony outgrowth
Protocol: as §1, §2
Based on colony outgrowth assays, using tumour cells derived from 8 patient-derived tumours maintained as xenografts in mice, BAL27862-sensitive or resistant tumour cells were identified from gastric cancer, colorectal cancer, melanoma, and lung cancer (see Table 1). […]

[1] = test system: HeLa cervical cancer cells; assay: Immunofluorescent staining of microtubules (anti-alpha-tubulin) in cultured cells; conditions: 50 nM, 24 hours treatment
Protocol: as §4

[2] = test system: SKBR3 breast cancer cells; assay: as above; conditions: SKBR3, 50 nM, 24 hours treatment
Protocol: as §4

CC(=O)O[C@H]1C(=O)[C@@]2(C)[C@H]([C@H](OC(=O)c3ccccc3)[C@]3(O)C[C@H](OC(=O)[C@H](O)[C@@H](NC(=O)c4ccccc4)c4ccccc4)C(C)=C1C3(C)C)[C@]1(OC(C)=O)CO[C@@H]1C[C@@H]2O [paclitaxel, reference compound]
Response to paclitaxel (CXF 243): resistant (BAL27862-resistant tumour cells had IC70 values >600 nanomolar)
Response to paclitaxel (MEXF 1341): resistant (BAL27862-resistant tumour cells had IC70 values >600 nanomolar)
Response to paclitaxel (CXF 1103): resistant (BAL27862-resistant tumour cells had IC70 values >600 nanomolar)
Response to paclitaxel (GFX 251): resistant (BAL27862-resistant tumour cells had IC70 values >600 nanomolar)
Response to paclitaxel (MEXF 276): resistant (BAL27862-resistant tumour cells had IC70 values >600 nanomolar)
Effect on microtubule phenotype induced by BAL27862 (A549 NSCLC cells; A549): no impact
Response to paclitaxel (GFX 97): resistant (BAL27862-resistant tumour cells had IC70 values >600 nanomolar)
Response to paclitaxel (LXFE 211): resistant (BAL27862-resistant tumour cells had IC70 values >600 nanomolar)

N#CCCNc1nonc1-c1nc2ccccc2n1CC(=O)c1ccc(N)nc1 [Compound C, 3-(4-{1-[2-(6-Amino-pyridin-3-yl)-2-oxo-ethyl]-1H-benzoimidazol-2-yl}-furazan-3-ylamino)-propionitrile]
Microtubule phenotype of mitotic or G2/M arrested cells (A549 NSCLC cells; A549, 20 nM): dot-like structures

COC(=O)Nc1nc2ccc(C(=O)c3cccs3)cc2[nH]1 [nocodazole, reference compound]
Effect on microtubule phenotype induced by BAL27862 (A549 NSCLC cells; A549): no impact

Nc1ccc(C(=O)Cn2c(-c3nonc3N)nc3ccccc32)cc1 [Compound B, 2-[2-(4-Amino-furazan-3-yl)-benzoimidazol-1-yl]-1-(4-amino-phenyl)-ethanone]
Microtubule phenotype of mitotic or G2/M arrested cells (A549 NSCLC cells; A549, 80 nM): dot-like structures

COc1cc2c(c(OC)c1OC)-c1ccc(OC)c(=O)cc1[C@@H](NC(C)=O)CC2 [colchicine, reference compound]
Effect on microtubule phenotype induced by BAL27862 (A549 NSCLC cells; A549): no impact

N#CCCNc1nonc1-c1nc2ccccc2n1CC(=O)c1ccc(N)cc1 [BAL27862, 3-(4-{1-[2-(4-Amino-phenyl)-2-oxo-ethyl]-1H-benzoimidazol-2-yl}-furazan-3-ylamino)-propionitrile]
IC70 BAL27862 (CXF 243): 696 nM
Response to BAL27862 (CXF 243): resistant (BAL27862-resistant tumour cells had IC70 values >600 nanomolar)
IC70 BAL27862 (MEXF 1341): 25 nM
Response to BAL27862 (MEXF 1341): sensitive
IC70 BAL27862 (CXF 1103): 22 nM
Response to BAL27862 (CXF 1103): sensitive
IC70 BAL27862 (GFX 251): 485 nM
Response to BAL27862 (GFX 251): sensitive
IC70 BAL27862 (LXFE 397): >3500 nM
Response to BAL27862 (LXFE 397): resistant (BAL27862-resistant tumour cells had IC70 values >600 nanomolar)
IC70 BAL27862 (MEXF 276): >3500 nM
Response to BAL27862 (MEXF 276): resistant (BAL27862-resistant tumour cells had IC70 values >600 nanomolar)
Microtubule phenotype of mitotic or G2/M arrested cells [1]: dot-like structures
Microtubule phenotype of mitotic or G2/M arrested cells (A549 NSCLC cells; A549, 50 nM): dot-like structures
Effect on microtubule phenotype induced by conventional microtubule targeting agents (A549 NSCLC cells; A549, 24 hours vinblastine, colchicine, paclitaxel or nocodazole with the final 4 hours including BAL27862): disruption of the microtubule structures
Microtubule phenotype of mitotic or G2/M arrested cells [2]: dot-like structures
IC70 BAL27862 (GFX 97): >3500 nM
Response to BAL27862 (GFX 97): resistant (BAL27862-resistant tumour cells had IC70 values >600 nanomolar)
IC70 BAL27862 (LXFE 211): 21 nM
Response to BAL27862 (LXFE 211): sensitive

CC[C@]1(O)C[C@@H]2CN(CCc3c([nH]c4ccccc34)[C@@](C(=O)OC)(c3cc4c(cc3OC)N(C)[C@H]3[C@@](O)(C(=O)OC)[C@H](OC(C)=O)[C@]5(CC)C=CCN6CC[C@]43[C@@H]65)C2)C1 [vinblastine, reference compound]
Response to vinblastine (CXF 243): sensitive
Response to vinblastine (MEXF 1341): sensitive
Response to vinblastine (CXF 1103): resistant (BAL27862-resistant tumour cells had IC70 values >600 nanomolar)
Response to vinblastine (GFX 251): sensitive
Response to vinblastine (MEXF 276): sensitive
Effect on microtubule phenotype induced by BAL27862 (A549 NSCLC cells; A549): no impact
Response to vinblastine (GFX 97): sensitive
Response to vinblastine (LXFE 211): sensitive

— US10724072B2, “Use of phospho-Akt as a biomarker of drug response” (Basilea Pharmaceutica AG, priority 2011, dated 2020)
